Source: PMC12722308, “A phase 1 study of orally administered 5-fluoro-2’-deoxycytidine with tetrahydrouridine in patients with refractory solid tumors” (Cancer Chemotherapy and Pharmacology, 2025)
Marks after values point to notes of the source that are not given here. One block for each molecule: values may come before it.

Legend:
[1] = Urinary excretion by LC-MS/MS; type: in vivo, human
Description: (§1) Blood specimens for PK analysis were collected on Cycle 1 Day 1 (C1D1) prior to THU administration and then at 15, 30, and 45 min and 1, 2, 3, 4, 5, and 6 h after THU administration, as well as on C1D2 and C1D3 prior to and 2 h after THU administration. Urine specimens for PK analysis were collected on C1D1 prior to treatment and then at every void from 0 to 24 h after THU administration. All specimens for PK analysis were processed and analyzed by LC-MS/MS as described previously, and Phoenix WinNonlin software was used for data analysis.

[2] = Plasma pharmacokinetics by LC-MS/MS; type: in vivo, human
Description: as §1

[3] = DL2: FdCyd 60 mg + THU 3000 mg oral, FU n=3, geom. mean (geom. SD)
[4] = DL3: FdCyd 90 mg + THU 3000 mg oral, FU n=3, geom. mean (geom. SD)
[5] = DL4: FdCyd 120 mg + THU 3000 mg oral, FU n=2, geom. mean (geom. SD)
[6] = DL5-9: FdCyd 160 mg + THU 3000 mg oral, FU n=29, geom. mean (geom. SD)
[7] = DL10: FdCyd 60 mg + THU 6000 mg oral, FU n=8, geom. mean (geom. SD)
[8] = DL11: FdCyd 80 mg + THU 6000 mg oral, FU n=3, geom. mean (geom. SD)
[9] = All FdCyd doses + THU 3000 mg oral (n=44), geom. mean (geom. SD)
[10] = All FdCyd doses + THU 6000 mg oral (n=11), geom. mean (geom. SD)
[11] = DL1: FdCyd 30 mg + THU 3000 mg oral (n=3), geom. mean (geom. SD)
[12] = DL1: FdCyd 30 mg + THU 3000 mg oral (n=3), no SD given
[13] = DL2: FdCyd 60 mg + THU 3000 mg oral (n=4), geom. mean (geom. SD)
[14] = DL3: FdCyd 90 mg + THU 3000 mg oral (n=3), geom. mean (geom. SD)
[15] = DL4: FdCyd 120 mg + THU 3000 mg oral (n=3), geom. mean (geom. SD)
[16] = DL5-9: FdCyd 160 mg + THU 3000 mg oral (n=31), geom. mean (geom. SD)
[17] = DL10: FdCyd 60 mg + THU 6000 mg oral (n=8), geom. mean (geom. SD)
[18] = DL11: FdCyd 80 mg + THU 6000 mg oral (n=3), geom. mean (geom. SD)
[19] = Total, all dose levels (n=55), geom. mean (geom. SD)

- FU urinary excretion over 0-24 hours of day 1 ([1]; All FdCyd doses + THU 3000 mg, N=27, geom. mean (geom. SD)): 0.37 (2.0) % dose
- FU urinary excretion over 0-24 hours of day 1 ([1]; All FdCyd doses + THU 6000 mg, N=9, geom. mean (geom. SD)): 0.27 (2.5) % dose
- FU urinary excretion over 0-24 hours of day 1 ([1]; DL1: FdCyd 30 mg + THU 3000 mg, N=1): 0.20 (-) % dose
- FU urinary excretion over 0-24 hours of day 1 ([1]; DL2: FdCyd 60 mg + THU 3000 mg, N=1): 0.51 (-) % dose
- FU urinary excretion over 0-24 hours of day 1 ([1]; DL4: FdCyd 120 mg + THU 3000 mg, N=1): 0.34 (-) % dose
- FU urinary excretion over 0-24 hours of day 1 ([1]; DL5-9: FdCyd 160 mg + THU 3000 mg, N=24, geom. mean (geom. SD)): 0.38 (2.1) % dose
- FU urinary excretion over 0-24 hours of day 1 ([1]; DL10: FdCyd 60 mg + THU 6000 mg, N=6, geom. mean (geom. SD)): 0.32 (2.5) % dose
- FU urinary excretion over 0-24 hours of day 1 ([1]; DL11: FdCyd 80 mg + THU 6000 mg, N=3, geom. mean (geom. SD)): 0.21 (3.0) % dose
- FU AUC0-inf [2, 3]: 0.019 (1.70) mg/L•h
- FU Cmax [2, 3]: 0.0042 (1.2) mg/L
- FU AUC0-inf [2, 4]: 0.026 (1.54) mg/L•h
- FU Cmax [2, 4]: 0.0055 (1.1) mg/L
- FU AUC0-inf [2, 5]: 0.032 (1.12) mg/L•h
- FU Cmax [2, 5]: 0.0082 (1.4) mg/L
- FU AUC0-inf [2, 6]: 0.052 (1.66) mg/L•h
- FU Cmax [2, 6]: 0.015 (1.6) mg/L
- FU AUC0-inf [2, 7]: 0.033 (1.30) mg/L•h
- FU Cmax [2, 7]: 0.011 (1.3) mg/L
- FU AUC0-inf [2, 8]: 0.044 (1.36) mg/L•h
- FU Cmax [2, 8]: 0.010 (1.1) mg/L
SMILES: O=c1[nH]cc(F)c(=O)[nH]1 [FU]

- FdUrd urinary excretion over 0-24 hours of day 1 ([1]; All FdCyd doses + THU 3000 mg, N=5, geom. mean (geom. SD)): 0.053 (1.3) % dose
- FdUrd urinary excretion over 0-24 hours of day 1 ([1]; All FdCyd doses + THU 6000 mg, N=3, geom. mean (geom. SD)): 0.10 (2.6) % dose
- FdUrd urinary excretion over 0-24 hours of day 1 ([1]; DL4: FdCyd 120 mg + THU 3000 mg, N=2, geom. mean (geom. SD)): 0.064 (1.0) % dose
- FdUrd urinary excretion over 0-24 hours of day 1 ([1]; DL5-9: FdCyd 160 mg + THU 3000 mg, N=3, geom. mean (geom. SD)): 0.047 (1.3) % dose
- FdUrd urinary excretion over 0-24 hours of day 1 ([1]; DL10: FdCyd 60 mg + THU 6000 mg, N=2, geom. mean (geom. SD)): 0.14 (2.6) % dose
- FdUrd urinary excretion over 0-24 hours of day 1 ([1]; DL11: FdCyd 80 mg + THU 6000 mg, N=1): 0.045 (-) % dose
- FdUrd AUC/Dose [2, 9]: 0.55 (1.6)^d µg/L•h/mg
- FdUrd Cmax/Dose [2, 9]: 0.19 (1.6)^c µg/L / mg
- FdUrd t½ [2, 9]: 1.3 (1.9) h
- FdUrd/FdCyd metabolic ratio, AUC0-inf [2, 9]: 0.068 (2.1)^f
- FdUrd/FdCyd metabolic ratio, Cmax [2, 9]: 0.048 (2.0)^e
- FdUrd AUC/Dose [2, 10]: 0.80 (1.6)^d µg/L•h/mg
- FdUrd Cmax/Dose [2, 10]: 0.34 (1.5)^c µg/L / mg
- FdUrd t½ [2, 10]: 1.2 (1.6) h
- FdUrd/FdCyd metabolic ratio, AUC0-inf [2, 10]: 0.067 (1.4)^f
- FdUrd/FdCyd metabolic ratio, Cmax [2, 10]: 0.051 (1.9)^e
- FdUrd Cmax [2, 11]: 0.012 (1.4) mg/L
- FdUrd Cmax/Dose [2, 11]: 0.41 (1.4) µg/L / mg
- FdUrd/FdCyd metabolic ratio, Cmax [2, 11]: 0.099 (1.6)
- FdUrd AUC0-inf [2, 12]: 0.047 (-) mg/L•h
- FdUrd AUC/Dose [2, 12]: 1.58 (-) µg/L•h/mg
- FdUrd t½ [2, 12]: 3.3 (-) h
- FdUrd/FdCyd metabolic ratio, AUC0-inf [2, 12]: 0.069 (-)
- FdUrd AUC0-inf [2, 13]: 0.044 (1.72) mg/L•h
- FdUrd AUC/Dose [2, 13]: 0.73 (1.7) µg/L•h/mg
- FdUrd Cmax [2, 13]: 0.011 (1.7) mg/L
- FdUrd Cmax/Dose [2, 13]: 0.19 (1.7) µg/L / mg
- FdUrd t½ [2, 13]: 1.8 (3.4) h
- FdUrd/FdCyd metabolic ratio, AUC0-inf [2, 13]: 0.070 (3.5)
- FdUrd/FdCyd metabolic ratio, Cmax [2, 13]: 0.039 (2.3)
- FdUrd AUC0-inf [2, 14]: 0.043 (1.20) mg/L•h
- FdUrd AUC/Dose [2, 14]: 0.48 (1.2) µg/L•h/mg
- FdUrd Cmax [2, 14]: 0.015 (1.2) mg/L
- FdUrd Cmax/Dose [2, 14]: 0.16 (1.2) µg/L / mg
- FdUrd t½ [2, 14]: 1.1 (1.3) h
- FdUrd/FdCyd metabolic ratio, AUC0-inf [2, 14]: 0.041 (1.7)
- FdUrd/FdCyd metabolic ratio, Cmax [2, 14]: 0.028 (1.7)
- FdUrd AUC0-inf [2, 15]: 0.054 (1.97) mg/L•h
- FdUrd AUC/Dose [2, 15]: 0.45 (2.0) µg/L•h/mg
- FdUrd Cmax [2, 15]: 0.016 (1.6) mg/L
- FdUrd Cmax/Dose [2, 15]: 0.14 (1.6) µg/L / mg
- FdUrd t½ [2, 15]: 1.7 (1.2) h
- FdUrd/FdCyd metabolic ratio, AUC0-inf [2, 15]: 0.034 (1.3)
- FdUrd/FdCyd metabolic ratio, Cmax [2, 15]: 0.018 (1.3)
- FdUrd AUC0-inf [2, 16]: 0.084 (1.55) mg/L•h
- FdUrd AUC/Dose [2, 16]: 0.53 (1.6) µg/L•h/mg
- FdUrd Cmax [2, 16]: 0.031 (1.5) mg/L
- FdUrd Cmax/Dose [2, 16]: 0.20 (1.5) µg/L / mg
- FdUrd t½ [2, 16]: 1.2 (1.7) h
- FdUrd/FdCyd metabolic ratio, AUC0-inf [2, 16]: 0.070 (1.8)
- FdUrd/FdCyd metabolic ratio, Cmax [2, 16]: 0.054 (1.9)
- FdUrd AUC0-inf [2, 17]: 0.047 (1.59) mg/L•h
- FdUrd AUC/Dose [2, 17]: 0.79 (1.6) µg/L•h/mg
- FdUrd Cmax [2, 17]: 0.023 (1.4) mg/L
- FdUrd Cmax/Dose [2, 17]: 0.38 (1.4) µg/L / mg
- FdUrd t½ [2, 17]: 1.0 (1.5) h
- FdUrd/FdCyd metabolic ratio, AUC0-inf [2, 17]: 0.072 (1.4)
- FdUrd/FdCyd metabolic ratio, Cmax [2, 17]: 0.060 (1.8)
- FdUrd AUC0-inf [2, 18]: 0.068 (1.68) mg/L•h
- FdUrd AUC/Dose [2, 18]: 0.85 (1.7) µg/L•h/mg
- FdUrd Cmax [2, 18]: 0.019 (1.6) mg/L
- FdUrd Cmax/Dose [2, 18]: 0.24 (1.6) µg/L / mg
- FdUrd t½ [2, 18]: 1.7 (1.5) h
- FdUrd/FdCyd metabolic ratio, AUC0-inf [2, 18]: 0.056 (1.2)
- FdUrd/FdCyd metabolic ratio, Cmax [2, 18]: 0.033 (1.8)
- FdUrd Cmax/Dose [2, 19]: 0.22 (1.6) µg/L / mg
- FdUrd t½ [2, 19]: 1.3 (1.8) h
SMILES: O=c1[nH]c(=O)n([C@H]2C[C@H](O)[C@@H](CO)O2)cc1F [FdUrd]
